In US8937181B2, “Benzenesulfonamide compounds and the use thereof” (Purdue Pharma L.P., priority 2006, dated 2015):

Key:
[1] = target: T1, N-type calcium channel (NTCC) (Homo sapiens, UniProt Q00975); experiment: FLIPR calcium mobilization assay for N-type calcium channel; type: cell-based; details: calcium mobilization in vitro assay; differentiated IMR32 cells, 5 μM nitrendipine, 90 mM KCl
T1 construct: host or cells: IMR32 cells differentiated with dibutyryl cAMP and bromodeoxyuridine
Procedure: Unless noted otherwise, cell culture reagents were purchased from Mediatech of Herndon, Md. IMR32 cells (American Type Culture Collection, ATCC, Manassas, Va.) were routinely cultured in growth medium consisting of minimum essential medium containing 10% fetal bovine serum (FBS, Hyclone, Logan, Utah), 100 U/mL penicillin, 100 μg/mL streptomycin, 2 mM L-glutamine, 1 mM sodium pyruvate, and 1×MEM non-essential amino acids. 80-90% confluent flasks of cells were differentiated using the following differentiation medium: Growth medium plus 1 mM dibutyryl cyclic AMP (Sigma, St. Louis, Mo.), and 2.5 μM bromodeoxyuridine (Sigma). Cells were differentiated for 8 days by replacing differentiation medium every 2-3 days.
FLIPR Calcium Mobilization Assay for N-type Calcium Channel.
One day prior to performing this assay, differentiated IMR32 cells were treated with 1× CellStripper, and seeded on poly-D-lysine-coated 96-well clear-bottom black plates (Becton Dickinson, Franklin Lakes, N.J.) at 200,000 cells/well. On the day of the assay, the cell plates were washed with IMR32 buffer (127 mM NaCl, 1 mM KCl, 2 mM MgCl2, 700 μM NaH2PO4, 5 mM CaCl2, 5 mM NaHCO3, 8 mM HEPES, 10 mM glucose, pH7.4), then pre-stimulated with KCl and loaded as follows: 0.05 mL of IMR32 buffer, 0.05 mL of each compound tested diluted in IMR32 buffer containing 20 μM nitrendipine (Sigma), and 0.1 mL KCl dissolved in IMR32 buffer, plus Fluo-4 were added (3 μM final concentration, Molecular Probes, Eugene, Oreg.). Final test compound concentrations ranged from about 846 pM to about 17 μM, final nitrendipine concentration was 5 μM, and final KCl concentration was 90 mM. After 1 hour, the cells were washed twice with 0.05 mL of each compound tested in nitrendipine-containing IMR32 buffer (no KCl or Fluo-4), and then replaced with 0.1 mL of each compound tested in nitrendipine-containing IMR32 buffer. Plates were then transferred to a Fluorimetric Imaging Plate Reader (FLIPR^96, Molecular Devices, Inc., Sunnyvale, Calif.) for assay. The FLIPR measured basal Fluo-4 fluorescence for 315 seconds (i.e., 5 minutes and 15 seconds), then added 0.1 mL KCl agonist dissolved in IMR32 buffer and measured fluorescence for another 45 seconds. Final test compound concentrations on the cells after FLIPR read ranged from about 846 pM to about 17 μM, final nitrendipine concentration was 5 μM, and final KCl concentration was 90 mM. Data were collected over the entire time course and analyzed using Excel, Graph Pad Prism (version 3.02, Graph Pad, San Diego, Calif.), or an in-house non-linear regression analysis software.

[2] = target: T2, L-type calcium channel (LTCC) (Rattus norvegicus, UniProt P22002); experiment: FLIPR calcium mobilization assay for L-type calcium channel; type: cell-based; details: calcium mobilization in vitro assay; HEK293 cells stably expressing recombinant rat LTCC subunits (α1c, α2δ, β1), 90 mM KCl
T2 construct: The 6.5 kb cDNA encoding the L-type calcium channel α1c subunit was cloned by PCR amplification from rat heart cDNA; expressed in transfected cells
Procedure: Recombinant human embryonal kidney cells (HEK293, ATCC) stably transfected with either N-type calcium channel (NTCC) subunits (α1b, α2δ, and β3) or L-type calcium channel (LTCC) subunits (α1c, α2δ, and β1) were routinely cultured in growth medium consisting of Dulbecco's Modified Eagles Medium containing 10% FBS, 100 U/mL penicillin, 100 μg/mL streptomycin, 4 mM L-glutamine, 500 μg/mL geneticin (G418), 20 μg/mL Blasticidin S (InVivogen, San Diego, Calif.) and 500 μg/mL zeocin (InVivogen).
FLIPR Calcium Mobilization Assay for L-type Calcium Channel.
One day prior to performing this assay, HEK293 cells stably expressing recombinant rat L-type calcium channel (LTCC) subunits (α1c, α2δ, and β1) were trypsinized, then seeded on poly-D-lysine-coated 96-well clear-bottom black plates (Becton Dickinson, Franklin Lakes, N.J.) at 75,000 cells/well. On the day of the assay, the plates were washed with LTCC wash buffer (127 mM NaCl, 2 mM MgCl2, 700 μM NaH2PO4, 5 mM CaCl2, 5 mM NaHCO3, 8 mM HEPES, 10 mM glucose, pH7.4), then loaded with 0.1 mL of LTCC wash buffer containing Fluo-4 (3 μM final concentration, Molecular Probes, Eugene, Oreg.). After 1 hour, the cells were washed with 0.1 mL LTCC wash buffer and resuspended in 0.05 mL LTCC assay buffer (same composition as LTCC wash buffer). Plates were then transferred to a FLIPR^96 for assay. The FLIPR measured basal Fluo-4 fluorescence for 15 seconds, then added 0.05 mL of each compound tested diluted in LTCC assay buffer at final concentrations ranging from about 846 pM to about 17 μM. Fluo-4 fluorescence was then measured for 5 minutes. 0.1 mL KCl agonist dissolved in LTCC assay buffer was then added to the cells to produce a final concentration of 90 mM KCl, and fluorescence was measured for another 45 seconds. Data were collected over the entire time course and analyzed using Excel, Graph Pad Prism, or an in-house regression analysis software.

T1 sequence (Q00975 whole entry): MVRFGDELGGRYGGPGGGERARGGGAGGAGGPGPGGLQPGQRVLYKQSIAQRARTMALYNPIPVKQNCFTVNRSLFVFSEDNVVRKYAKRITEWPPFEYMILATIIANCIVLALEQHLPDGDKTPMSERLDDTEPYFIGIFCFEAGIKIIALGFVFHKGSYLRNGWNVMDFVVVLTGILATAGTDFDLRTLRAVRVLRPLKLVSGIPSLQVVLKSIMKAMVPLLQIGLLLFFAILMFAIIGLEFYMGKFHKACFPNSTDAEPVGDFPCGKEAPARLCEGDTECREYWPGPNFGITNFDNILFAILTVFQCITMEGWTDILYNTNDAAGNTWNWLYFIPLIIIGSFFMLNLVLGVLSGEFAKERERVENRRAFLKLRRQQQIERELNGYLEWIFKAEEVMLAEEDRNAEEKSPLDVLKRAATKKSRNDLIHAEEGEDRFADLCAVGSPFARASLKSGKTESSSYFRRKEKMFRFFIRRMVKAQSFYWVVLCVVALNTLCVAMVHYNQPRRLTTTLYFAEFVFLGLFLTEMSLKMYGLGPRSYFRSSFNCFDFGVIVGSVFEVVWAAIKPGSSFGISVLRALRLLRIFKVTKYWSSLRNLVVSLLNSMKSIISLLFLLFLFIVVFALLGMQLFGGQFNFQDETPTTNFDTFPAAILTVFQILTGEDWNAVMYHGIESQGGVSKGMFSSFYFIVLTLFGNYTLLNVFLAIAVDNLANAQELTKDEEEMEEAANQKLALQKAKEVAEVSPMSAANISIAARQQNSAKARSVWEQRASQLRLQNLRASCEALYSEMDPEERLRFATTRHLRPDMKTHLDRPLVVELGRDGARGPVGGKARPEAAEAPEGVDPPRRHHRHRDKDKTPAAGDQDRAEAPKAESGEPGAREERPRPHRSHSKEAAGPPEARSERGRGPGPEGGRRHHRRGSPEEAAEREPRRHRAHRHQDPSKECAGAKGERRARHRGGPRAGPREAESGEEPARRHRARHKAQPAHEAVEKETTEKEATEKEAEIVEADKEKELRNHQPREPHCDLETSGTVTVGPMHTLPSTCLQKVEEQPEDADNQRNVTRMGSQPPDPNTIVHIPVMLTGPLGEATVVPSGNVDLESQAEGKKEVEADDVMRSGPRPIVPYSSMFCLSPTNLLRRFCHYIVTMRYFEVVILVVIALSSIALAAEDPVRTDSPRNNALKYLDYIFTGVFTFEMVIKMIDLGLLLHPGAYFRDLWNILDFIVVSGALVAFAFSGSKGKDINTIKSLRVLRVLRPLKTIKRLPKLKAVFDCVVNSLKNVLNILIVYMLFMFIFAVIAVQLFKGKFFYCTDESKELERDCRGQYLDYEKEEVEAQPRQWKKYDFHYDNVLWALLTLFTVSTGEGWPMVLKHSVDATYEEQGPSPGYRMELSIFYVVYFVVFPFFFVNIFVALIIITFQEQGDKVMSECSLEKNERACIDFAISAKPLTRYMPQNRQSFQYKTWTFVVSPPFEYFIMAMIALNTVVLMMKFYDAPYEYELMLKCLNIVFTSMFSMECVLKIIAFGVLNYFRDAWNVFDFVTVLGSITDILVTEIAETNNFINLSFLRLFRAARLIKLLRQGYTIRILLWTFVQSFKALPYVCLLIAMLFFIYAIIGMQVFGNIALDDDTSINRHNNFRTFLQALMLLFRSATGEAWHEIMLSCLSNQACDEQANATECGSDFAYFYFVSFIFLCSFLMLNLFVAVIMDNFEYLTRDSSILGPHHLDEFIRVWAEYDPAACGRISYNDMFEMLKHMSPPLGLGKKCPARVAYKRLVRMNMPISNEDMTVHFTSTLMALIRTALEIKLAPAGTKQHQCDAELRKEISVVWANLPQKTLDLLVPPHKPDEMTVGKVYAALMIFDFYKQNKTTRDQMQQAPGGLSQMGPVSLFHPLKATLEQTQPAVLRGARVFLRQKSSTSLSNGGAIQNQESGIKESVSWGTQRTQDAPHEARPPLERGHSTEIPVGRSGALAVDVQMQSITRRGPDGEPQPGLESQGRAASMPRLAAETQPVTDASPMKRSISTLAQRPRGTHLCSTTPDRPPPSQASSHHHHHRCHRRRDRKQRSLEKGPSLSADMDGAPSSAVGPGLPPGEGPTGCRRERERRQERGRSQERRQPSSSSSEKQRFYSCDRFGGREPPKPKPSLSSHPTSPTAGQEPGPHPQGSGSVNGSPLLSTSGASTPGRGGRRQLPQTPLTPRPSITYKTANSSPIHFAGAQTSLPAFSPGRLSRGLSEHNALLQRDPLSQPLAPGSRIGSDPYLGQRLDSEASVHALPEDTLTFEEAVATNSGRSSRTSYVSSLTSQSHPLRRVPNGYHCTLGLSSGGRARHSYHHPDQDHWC
T1 sequence (P54289 25-956 partner limits assumed): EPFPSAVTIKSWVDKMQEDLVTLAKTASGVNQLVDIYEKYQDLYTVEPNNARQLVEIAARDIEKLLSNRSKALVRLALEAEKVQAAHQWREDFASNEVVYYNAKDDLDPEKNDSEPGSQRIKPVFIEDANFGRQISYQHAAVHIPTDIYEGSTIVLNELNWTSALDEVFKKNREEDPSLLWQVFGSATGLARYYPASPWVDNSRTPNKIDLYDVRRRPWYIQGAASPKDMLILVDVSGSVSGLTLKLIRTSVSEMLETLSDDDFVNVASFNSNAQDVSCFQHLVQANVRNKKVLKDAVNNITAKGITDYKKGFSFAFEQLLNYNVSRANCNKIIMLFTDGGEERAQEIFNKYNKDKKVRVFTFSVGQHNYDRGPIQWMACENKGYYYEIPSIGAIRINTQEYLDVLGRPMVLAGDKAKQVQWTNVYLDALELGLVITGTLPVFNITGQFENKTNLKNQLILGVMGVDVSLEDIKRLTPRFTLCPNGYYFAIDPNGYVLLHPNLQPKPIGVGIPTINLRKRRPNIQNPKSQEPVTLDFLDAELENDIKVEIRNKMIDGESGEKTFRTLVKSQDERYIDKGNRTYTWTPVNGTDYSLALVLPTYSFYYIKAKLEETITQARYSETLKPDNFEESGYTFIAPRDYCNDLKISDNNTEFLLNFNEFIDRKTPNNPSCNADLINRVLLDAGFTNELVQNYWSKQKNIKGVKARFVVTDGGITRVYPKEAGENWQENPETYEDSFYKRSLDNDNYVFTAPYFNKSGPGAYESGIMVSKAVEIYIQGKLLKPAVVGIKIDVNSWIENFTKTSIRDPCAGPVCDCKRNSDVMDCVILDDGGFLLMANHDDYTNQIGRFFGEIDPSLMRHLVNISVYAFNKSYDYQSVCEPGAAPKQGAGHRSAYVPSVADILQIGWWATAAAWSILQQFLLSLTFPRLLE
T1 sequence (P54289 957-1103 partner limits assumed): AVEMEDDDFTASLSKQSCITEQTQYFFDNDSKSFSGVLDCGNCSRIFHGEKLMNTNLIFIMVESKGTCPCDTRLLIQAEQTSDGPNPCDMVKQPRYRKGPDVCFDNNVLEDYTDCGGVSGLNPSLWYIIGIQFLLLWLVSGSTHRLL
T1 sequence (P54284 whole entry partner): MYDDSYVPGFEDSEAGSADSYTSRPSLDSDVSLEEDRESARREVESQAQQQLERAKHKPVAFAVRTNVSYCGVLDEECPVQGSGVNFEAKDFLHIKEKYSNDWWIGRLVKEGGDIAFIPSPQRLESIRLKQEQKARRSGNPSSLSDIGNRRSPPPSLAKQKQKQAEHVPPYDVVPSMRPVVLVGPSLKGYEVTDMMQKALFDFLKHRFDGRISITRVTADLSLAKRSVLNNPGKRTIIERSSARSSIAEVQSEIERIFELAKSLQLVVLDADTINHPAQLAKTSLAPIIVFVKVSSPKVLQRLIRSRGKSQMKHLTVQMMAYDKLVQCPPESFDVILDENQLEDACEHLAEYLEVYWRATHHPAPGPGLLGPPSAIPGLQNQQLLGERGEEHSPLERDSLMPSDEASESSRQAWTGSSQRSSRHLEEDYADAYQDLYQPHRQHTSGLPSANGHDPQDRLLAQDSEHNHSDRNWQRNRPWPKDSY

An IC50 [1] of 1.14 µM was found for `CC(C)N(C1CCN(C(=O)CN2Cc3ccccc3C2)CC1)S(=O)(=O)c1cccc(C(F)(F)F)c1` [Compound 25d, N-[1-(2-1,3-Dihydro-isoindol-2-yl-acetyl)-piperidin-4-yl]-N-isopropyl-3-trifluoromethylbenzenesulfonamide] in this work.
With `N[C@@H]1CCC[C@@H]1C(=O)N1CCC(N(C2CC2)S(=O)(=O)c2cccc(C(F)(F)F)c2)CC1` (racemic) [Compound 5, rac-N-[1-((1S,2R)-2-Amino-cyclopentanecarbonyl)-piperidin-4-yl]-N-cyclopropyl-3-trifluoromethyl-benzenesulfonamide] the IC50 [2] was > 20 µM and the IC50 [1] was 0.29 µM.
An IC50 [1] of 8.58 µM was found for `O=C(c1ccc(=O)[nH]c1)N1CCC(N(C2CC2)S(=O)(=O)c2cccc(C(F)(F)F)c2)CC1` [Compound 6, N-Cyclopropyl-N-[1-(6-oxo-1,6-dihydro-pyridine-3-carbonyl)-piperidin-4-yl]-3-trifluoromethyl-benzenesulfonamide] in this work.
An IC50 [2] of 10 to 20 µM and an IC50 [1] of 0.19 µM were found for `CC(C)N(C1CCN(C(=O)CNC2CCCCC2)CC1)S(=O)(=O)c1cccc(C(F)(F)F)c1` [Compound 25a, N-[1-(2-Cyclohexylamino-acetyl)-piperidin-4-yl]-N-isopropyl-3-trifluoromethylbenzenesulfonamide] in this work.
For `N[C@@H]1CCCC[C@@H]1C(=O)N1CCC(N(C2CC2)S(=O)(=O)c2cccc(C(F)(F)F)c2)CC1` (racemic) [Compound 4, rac-N-[1-((1S,2R)-2-Amino-cyclohexanecarbonyl)-piperidin-4-yl]-N-cyclopropyl-3-trifluoromethyl-benzenesulfonamide], the IC50 [2] was > 20 µM and the IC50 [1] was 0.57 µM.
An IC50 [2] of 3.06 µM and an IC50 [1] of 0.76 µM were found for `O=C(c1ccccc1[N+](=O)[O-])N1CCC(N(C2CC2)S(=O)(=O)c2cccc(C(F)(F)F)c2)CC1` [Compound 10, N-Cyclopropyl-N-[1-(2-nitro-benzoyl)-piperidin-4-yl]-3-trifluoromethyl-benzenesulfonamide] in this work.
An IC50 [1] of 2.47 µM was found for `O=C(CCN1CCC(O)CC1)N1CCC(N(C2CC2)S(=O)(=O)c2cccc(C(F)(F)F)c2)CC1` [Compound 2, N-Cyclopropyl-N-{1-[3-(4-hydroxy-piperidin-1-yl)-propionyl]-piperidin-4-yl}-3-trifluoromethyl-benzenesulfonamide] in this work.
An IC50 [1] of 8.68 µM was found for `O=C(c1ccncc1)N1CCC(N(C2CC2)S(=O)(=O)c2cccc(C(F)(F)F)c2)CC1` [Compound 9, N-Cyclopropyl-N-[1-(pyridine-4-carbonyl)-piperidin-4-yl]-3-trifluoromethyl-benzenesulfonamide] in this work.
In the case of `O=C(c1ccccc1NCCO)N1CCC(N(C2CC2)S(=O)(=O)c2cccc(C(F)(F)F)c2)CC1` [Compound 13, N-Cyclopropyl-N-{1-[2-(2-hydroxy-ethylamino)-benzoyl]-piperidin-4-yl}-3-trifluoromethyl-benzenesulfonamide], the IC50 [2] is reported as > 20 µM and the IC50 [1] is reported as 0.33 µM.
An IC50 [2] of 7.81 µM and an IC50 [1] of 3.98 µM were found for `CC(C)N(C1CCN(C(=O)CN2CCC(F)(F)C2)CC1)S(=O)(=O)c1cccc(C(F)(F)F)c1` [Compound 25f, N-{1-[2-(3,3-Difluoro-pyrrolidin-1-yl)-acetyl]-piperidin-4-yl}-N-isopropyl-3-trifluoromethylbenzenesulfonamide] in this work.
An IC50 [1] of 3.35 µM was found for `CC(C)N(C1CCN(C(=O)CN2CCCC(O)C2)CC1)S(=O)(=O)c1cccc(C(F)(F)F)c1` (stereo not drawn) [Compound 25b, N-{1-[2-(3-Hydroxy-piperidin-1-yl)-acetyl]-piperidin-4-yl}-N-isopropyl-3-trifluoromethylbenzenesulfonamide] in this work.
An IC50 [1] of 3.69 µM was found for `CC(C)N(C1CCN(C(=O)[C@H]2CCC[C@H]2N)CC1)S(=O)(=O)c1cccc(C(F)(F)F)c1` (racemic) [rac-N-[1-((1S,2R)-2-amino-cyclopentanecarbonyl)-piperidin-4-yl}-N-isopropyl-3-trifluoromethylbenzenesulfonamide] in this work.
An IC50 [2] of 10 to 20 µM and an IC50 [1] of 0.68 µM were found for `Nc1ccccc1C(=O)N1CCC(N(C2CC2)S(=O)(=O)c2cccc(C(F)(F)F)c2)CC1` [Compound 11, N-[1-(2-Amino-benzoyl)-piperidin-4-yl]-N-cyclopropyl-3-trifluoromethyl-benzenesulfonamide] in this work.
An IC50 [1] of 3.04 µM was found for `O=C(CCN[C@H]1CC[C@H](O)CC1)N1CCC(N(C2CC2)S(=O)(=O)c2cccc(C(F)(F)F)c2)CC1` [Compound 3, N-Cyclopropyl-N-{1-[3-(4-hydroxy-cyclohexylamino)-propionyl]-piperidin-4-yl}-3-trifluoromethyl-benzenesulfonamide] in this work.
An IC50 [1] of 7.25 µM was found for `O=C(c1cccnc1)N1CCC(N(C2CC2)S(=O)(=O)c2cccc(C(F)(F)F)c2)CC1` [Compound 8, N-Cyclopropyl-N-[1-(pyridine-3-carbonyl)-piperidin-4-yl]-3-trifluoromethyl-benzenesulfonamide] in this work.
An IC50 [1] of 5.53 µM was found for `O=C(c1ccccn1)N1CCC(N(C2CC2)S(=O)(=O)c2cccc(C(F)(F)F)c2)CC1` [Compound 7, N-Cyclopropyl-N-[1-(pyridine-2-carbonyl)-piperidin-4-yl]-3-trifluoromethyl-benzenesulfonamide] in this work.
In the case of `O=C(CNC1CCCC1)N1CCC(N(C2CC2)S(=O)(=O)c2cccc(C(F)(F)F)c2)CC1` [Compound 25c, N-[1-(2-Cyclopentylamino-acetyl)-piperidin-4-yl]-N-cyclopropyl-3-trifluoromethylbenzenesulfonamide], the IC50 [2] is reported as > 20 µM and the IC50 [1] is reported as 0.28 µM.
For `CC(C)N(C1CCN(C(=O)CN2CCCC(F)(F)C2)CC1)S(=O)(=O)c1cccc(C(F)(F)F)c1` [Compound 25e, N-{1-[2-(3,3-Difluoro-piperidin-1-yl)-acetyl]-piperidin-4-yl}-N-isopropyl-3-trifluoromethylbenzenesulfonamide], the IC50 [2] was > 20 µM and the IC50 [1] was 0.88 µM.
